Data: PMC10022191, “Safety, tolerability, pharmacokinetics, and antiviral activity of the novel core protein allosteric modulator ZM-H1505R (Canocapavir) in chronic hepatitis B patients: a randomized multiple-dose escalation trial” (BMC Medicine, 2023)
“Also recorded” adds a separate entry of the source.

How the values were obtained:
HBV = assay: phase 1b trial: antiviral activity (serum HBV markers) in CHB patients; assay type: in vivo, Hepatitis B virus
Experimental: The changes in the serum levels of HBV DNA, HBV pgRNA, HBcrAg, HBsAg, HBsAb, HBeAg, HBeAb, and HBcAb at different time points were examined. Blood samples were collected on the initial screening day (baseline) and days 1, 8, 15, 22, 29, 43 ± 1, and 57 ± 2 postdosing.
The HBV DNA level was measured using a COBAS TaqMan kit (Roche Diagnostics, Pleasanton, CA, USA), according to the manufacturer’s instructions. The lowest detectable level using this kit was 20 IU/mL. The serum levels of HBeAg and HBsAg were quantitatively assessed by a chemiluminescence method using Abbott Architect assays (Abbott Diagnostics; Abbott Park, IL, USA). The lowest detectable level of the kit for HBeAg and HBsAg were 1 and 0.05 IU/mL, respectively.

[1] = cited from earlier work
[2] = phase 1b trial: plasma pharmacokinetics in CHB patients; conditions: for mean plasma trough concentration relative to protein-binding adjusted HBV DNA EC50 (135 ng/mL): day 28
Experimental: Blood samples for Canocapavir PK analysis were collected at different time points, and were collected and placed into a vacutainer with an anticoagulant (K2-EDTA), followed by centrifugation at 2,000 g and 4 °C for 10 min to collect the plasma.
All of these parameters in the treatment cohorts were analyzed using the descriptive statistics methods provided by SAS 9.1 software (Cary, NC, USA). The dose proportionality of Canocapavir was evaluated by the power model and the linear fixed-effect model. Descriptive analysis was used for safety, tolerability and antiviral activity indexes. Please see Additional file 1 for the detailed methodology.
The concentration of Canocapavir was determined using a validated high-performance liquid chromatography-tandem mass spectrometry method of FRONTAGE Laboratories (Shanghai, China), with a detection range of 10–10,000 ng/mL.
Blood samples for Canocapavir PK analysis were collected at different time points, including preadministration (30 min predosing) and 0.5, 1, 2, 3, 4, 6, 8, 12, and 24 h postdosing on day 1; predosing on days 8, 15, 22, 27, and 28; and 0.5, 1, 2, 3, 4, 6, 8, 12, 24, 48, and 72 h postdosing on day 28.

[3] = 100 mg q.d., single patient with ALT flare

## O=C1CO[C@H](c2cn(-c3ccc(Br)cc3)nc2-c2ccc(F)cc2)N1CCc1ccc2[nH]c(=O)[nH]c2c1 [Canocapavir]
HBV; 50 mg q.d.
  patients with HBV DNA reduced below the lower limit of quantification: 0 number of patients (percentage
  patients with HBV pgRNA reduced below the lower limit of quantification (~ 2 log10 copies/mL): 1 (12.5%) number of patients (percentage
HBV; 50 mg q.d., 28 days
  maximum mean HBcrAg decrease: -0.30 log10 kU/mL
  mean maximum HBV DNA decline from baseline: -1.54 log10 IU/mL
  mean maximum HBV pgRNA decline from baseline: -1.53 log10 copies/mL
HBV; 50 mg q.d., HBeAg (+) patient
  HBV DNA response, subject E2003 with pre-existing HBc P25S substitution: no decrease
  HBV pgRNA response, subject E2003 with pre-existing HBc P25S substitution: only slightly decreased; also recorded: only a slight decrease
HBV; 100 mg q.d.
  patients with HBV DNA reduced below the lower limit of quantification: 1 (12.5%) number of patients (percentage
  patients with HBV pgRNA reduced below the lower limit of quantification (~ 2 log10 copies/mL): 1 (12.5%) number of patients (percentage
HBV; 100 mg q.d., 28 days
  maximum mean HBcrAg decrease: -0.61 log10 kU/mL
  mean maximum HBV DNA decline from baseline: -2.50 log10 IU/mL
  mean maximum HBV pgRNA decline from baseline: -2.35 log10 copies/mL
HBV; [3]
  maximum decrease of HBV DNA, patient E3010: -3.23 log10 IU/mL
  maximum decrease of HBV pgRNA, patient E3010: -3.71 log10 copies/mL
  maximum decrease of HBcrAg, patient E3010: -1.96 log10 kU/mL
  maximum decrease of HBsAg, patient E3010: -0.22 log10 IU/mL
HBV; 200 mg q.d.
  patients with HBV DNA reduced below the lower limit of quantification: 1 (12.5%) number of patients (percentage
  patients with HBV pgRNA reduced below the lower limit of quantification (~ 2 log10 copies/mL): 4 (50.0%) number of patients (percentage
HBV; 200 mg q.d., 28 days
  maximum mean HBcrAg decrease: -0.51 log10 kU/mL
  mean maximum HBV DNA decline from baseline: -2.75 log10 IU/mL
  mean maximum HBV pgRNA decline from baseline: -2.34 log10 copies/mL
HBV; 50–200 mg q.d., 28 days
  change of HBeAg level: Neither the HBsAg nor HBeAg levels decreased
  change of HBsAg level: Neither the HBsAg nor HBeAg levels decreased
  changes in levels of HBsAb, HBeAb, HBcAb: no clinically significant changes
[1]; healthy subjects
  accumulation rate after multiple administration: 1.7–2.3
  dose proportionality of mean plasma AUC and Cmax: increased in a dose-proportional manner
  food effect on drug absorption: Food had an effect on the drug absorption
  half-life after multiple administration: 12.2 to 21.7 h
  margin between plasma exposure and anti-HBV activity EC50 in vitro: 11.2–37.5 fold
  most common AE: increased ALT
[1]; single doses 25–450 mg, multiple doses 75–300 mg q.d. for 14 days
  safety and tolerability in healthy subjects: safe and well tolerated
[2]; 100 mg q.d.
  mean plasma trough concentration relative to protein-binding adjusted HBV DNA EC50 (135 ng/mL): 7.0 fold
[2]; 200 mg q.d.
  mean plasma trough concentration relative to protein-binding adjusted HBV DNA EC50 (135 ng/mL): 14.6 fold
[2]; human, in vivo
  power model slope (regression coefficient) of exposure (Cmax and AUC) vs dose: 0.82–1.14
  time to maximum concentration (Tmax): 2 to 3 h
[2]; human, in vivo, 50 mg
  AUC0-∞: 25,625.6 ± 15,804.7 h·ng/mL
  CL/F: 3.4 ± 1.5 L/h
  Vz/F: 61.4 ± 23.0 L
  t1/2: 13.0 ± 1.9 h
[2]; human, in vivo, 100 mg
  AUC0-∞: 59,399.0 ± 18,159.0 h·ng/mL
  CL/F: 2.5 ± 0.6 L/h
  Tmax: 3.0 (2.0, 4.0) h
  Vz/F: 42.3 ± 10.9 L
  t1/2: 12.1 ± 3.7 h
[2]; human, in vivo, 200 mg
  AUC0-∞: 120,090.0 ± 57,318.9 h·ng/mL
  CL/F: 3.3 ± 2.0 L/h
  Vz/F: 73.6 ± 43.4 L
  mean t1/2 after the last dosage: 12.1 to 15.6 h
  t1/2: 15.6 ± 2.3 h
